Laboratory results published in ChEMBL document CHEMBL5512666, “Selenization of Small Molecule Drugs: A New Player on the Board” (J Med Chem, 2024).
Values after ≈ are worked out from the molar mass of the structure shown.

Key:
[1] = Antiproliferative activity against human HEY A8 cells; type: functional, cell-based
ES-2 = experiment: Antiproliferative activity against human ES2 cells; type: functional, cell-based
HEK-293T = experiment: Antiproliferative activity against HEK293T; type: functional, cell-based; conditions: Homo sapiens
OVCAR-3 = experiment: Antiproliferative activity against human OVCAR-3 cells; type: functional, cell-based
[2] = Antiproliferative activity against human OVCAR-10 cells; type: functional, cell-based
[3] = Antioxidant activity assessed as reduction in peroxynitrite mediated L-tyrosine nitration by measuring remaining activity relative to control; type: functional; design: concentration or dose not given beside the values
MHCC97H = experiment: Antiproliferative activity against human MHCC97H cells assessed as reduction in cell viability incubated for 48 hrs by MTT assay; type: functional, cell-based
[4] = Inhibition of TrxR (unknown origin) expressed in MHCC97H cells incubated for 24 hrs by colorimetric assay; type: cell-based, Homo sapiens
Human alphaherpesvirus 2 = experiment: Antiviral activity against HSV-2 infected in African green monkey Vero cells assessed as reduction in virus-induced cytopathic effect incubated for 3 days by MTT assay; type: functional, organism-based; conditions: Human alphaherpesvirus 2, Vero, 72 h
Human alphaherpesvirus 3 = experiment: Antiviral activity against VZV infected in African green monkey Vero cells assessed as reduction in virus-induced cytopathic effect incubated for 3 days by MTT assay; type: functional, organism-based; conditions: Human alphaherpesvirus 3, Vero, 72 h
Human alphaherpesvirus 1 = experiment: Antiviral activity against HSV-1 infected in African green monkey Vero cells assessed as reduction in virus-induced cytopathic effect incubated for 3 days by MTT assay; type: functional, organism-based; conditions: Human alphaherpesvirus 1, Vero, 72 h
Human betaherpesvirus 5 = experiment: Antiviral activity against […] infected in African green monkey Vero cells assessed as reduction in virus-induced cytopathic effect incubated for 3 days by MTT assay; type: functional, organism-based; conditions: Human betaherpesvirus 5, Vero, 72 h
Candida tropicalis = experiment: Antifungal activity against Candida tropicalis CGMCC 2.3739; type: functional
Candida parapsilosis = experiment: Antifungal activity against Candida parapsilosis 22019; type: functional; conditions: Lodderomyces parapsilosis
Cryptococcus neoformans = experiment: Antifungal activity against Cryptococcus neoformans CGMCC 2.3161; type: functional
Candida albicans [5] = experiment: Antifungal activity against azole-resistant Candida albicans clinical isolate 632 assessed as fungal growth inhibition incubated for 24 hrs by CLSI protocol based broth microdilution method; type: functional
Pichia kudriavzevii = experiment: Antifungal activity against Candida krusei AS 2.1045; type: functional
Nakaseomyces glabratus = experiment: Antifungal activity against Candida glabrata; type: functional
Aspergillus fumigatus = experiment: Antifungal activity against Aspergillus fumigatus CGMCC 3.7795; type: functional
Candida albicans [6] = experiment: Antifungal activity against azole-resistant Candida albicans clinical isolate 901 assessed as fungal growth inhibition incubated for 24 hrs by CLSI protocol based broth microdilution method; type: functional
Candida albicans [7] = experiment: Antifungal activity against Candida albicans CPCC 400616; type: functional
Candida albicans [8] = experiment: Antifungal activity against azole-resistant Candida albicans clinical isolate 17 assessed as fungal growth inhibition incubated for 24 hrs by CLSI protocol based broth microdilution method; type: functional
Candida albicans [9] = experiment: Antifungal activity against azole-resistant Candida albicans clinical isolate 904 assessed as fungal growth inhibition incubated for 24 hrs by CLSI protocol based broth microdilution method; type: functional
Candida albicans [10] = experiment: Antifungal activity against Candida albicans SC5314; type: functional
Candida albicans [11] = experiment: Antifungal activity against azole-resistant Candida albicans clinical isolate CaR assessed as fungal growth inhibition incubated for 24 hrs by CLSI protocol based broth microdilution method; type: functional
[12] = Antioxidant activity assessed as inhibition of peroxynitrite mediated L-tyrosine nitration in sodium phosphate buffer at pH 7.5 incubated for 7 mins by RP-HPLC analysis; type: functional
[13] = Stability in rat plasma assessed as half life; type: ADME, cell-free
[14] = Cytotoxicity against human SGC cells assessed as reduction in cell viability incubated for 96 hrs by MTT assay; type: toxicity, cell-based
[15] = Cytotoxicity against human A549 cells assessed as reduction in cell viability incubated for 96 hrs by MTT assay; type: toxicity, cell-based
[16] = Cytotoxicity against human MDA-MB-231 cells assessed as reduction in cell viability incubated for 96 hrs by MTT assay; type: toxicity, cell-based
A549 = experiment: Cytotoxicity against human A549 cells measured after 72 hrs; type: functional, cell-based; conditions: A549, 72 h
HeLa = experiment: Cytotoxicity against human HeLa cells measured after 72 hrs; type: functional, cell-based
[17] = Cytotoxicity against mouse L929 cells measured after 72 hrs; type: toxicity, cell-based
[18] = Cytotoxicity against mouse NIH3T3 cells measured after 72 hrs; type: toxicity, cell-based
HCT-116 = experiment: Cytotoxicity against human HCT-116 cells measured after 72 hrs; type: functional, cell-based; conditions: HCT-116, 72 h

O=c1[nH]cc(F)c(=O)[nH]1 [FLUOROURACIL]
IC50 [1]: 48.4 µM | IC50 (ES-2): 25.9 µM | IC50 (HEK-293T): 56.2 µM | IC50 (OVCAR-3): 18.9 µM | IC50 [2]: 26.4 µM

C=C1N(C)C=CN1CCCCn1ccn(C)c1=[Se]
Activity [3]: 56%

CN(C)CCC[Se]c1cnc(-c2cccc(Cn3nc(-c4cccc(C#N)c4)ccc3=O)c2)nc1
IC50 (MHCC97H): 0.01 µM

CN(C)CC[Se]c1cnc(-c2cccc(Cn3nc(-c4cccc(C#N)c4)ccc3=O)c2)nc1
IC50 (MHCC97H): 0.027 µM | IC50 [4]: 0.421 µM

CNC1NC(N)=Nc2c1ncn2C[Se]CCO (stereo not given)
EC50 (Human alphaherpesvirus 2): 17.6 µM | EC50 (Human alphaherpesvirus 3): > 100 µM | EC50 (Human alphaherpesvirus 1): 14.3 µM | EC50 (Human betaherpesvirus 5): > 100 µM

N#Cc1cccc(-c2ccc(=O)n(Cc3cccc(-c4ncc([Se]CCN5CCCC5)cn4)c3)n2)c1
IC50 (MHCC97H): 0.063 µM | IC50 [4]: 0.8 µM

CCC(C)n1ncn(-c2ccc(N3CCN(c4ccc(OCC5COC(Cn6cncn6)(c6ccc(Cl)cc6Cl)O5)cc4)CC3)cc2)c1=O (stereo not given) [ITRACONAZOLE]
MIC (Candida tropicalis): 0.5 µg/mL (≈ 0.709 µM) | MIC (Candida parapsilosis): 0.25 µg/mL (≈ 0.354 µM) | MIC (Cryptococcus neoformans): 0.5 µg/mL (≈ 0.709 µM) | MIC (Candida albicans [5]): > 128 µg/mL | MIC (Pichia kudriavzevii): 0.06 µg/mL (≈ 0.085 µM) | MIC (Nakaseomyces glabratus): 0.5 µg/mL (≈ 0.709 µM) | MIC (Aspergillus fumigatus): 2 µg/mL (≈ 2.83 µM) | MIC (Candida albicans [6]): > 128 µg/mL | MIC (Candida albicans [7]): 0.25 µg/mL (≈ 0.354 µM) | MIC (Candida albicans [8]): > 128 µg/mL | MIC (Candida albicans [9]): > 128 µg/mL | MIC (Candida albicans [10]): 0.03 µg/mL (≈ 0.0425 µM) | MIC (Candida albicans [11]): 8 µg/mL (≈ 11.3 µM)

Cn1ccnc1S [METHIMAZOLE]
Activity [3]: 32.5% | IC50 [12]: 23.9 µM

OC(Cn1cncn1)(Cn1cncn1)c1ccc(F)cc1F [FLUCONAZOLE]
MIC (Candida tropicalis): 2 µg/mL (≈ 6.53 µM) | MIC (Candida albicans [5]): > 128 µg/mL | MIC (Candida albicans [6]): > 128 µg/mL | MIC (Candida albicans [8]): > 128 µg/mL | MIC (Candida albicans [9]): > 128 µg/mL | MIC (Candida albicans [11]): > 128 µg/mL

CCCc1cc(=O)[nH]c(=S)[nH]1 [PROPYLTHIOURACIL]
IC50 [12]: 95 µM

COc1cccc(Cn2ccn(Cc3cccc(OC)c3)c2=[Se])c1
Activity [3]: 82% | IC50 [12]: 42.2 µM

NC1=Nc2c(ncn2C[Se]C(CO)CO)C(NC2CC2)N1 (stereo not given)
EC50 (Human alphaherpesvirus 2): > 100 µM | EC50 (Human alphaherpesvirus 3): > 100 µM | EC50 (Human alphaherpesvirus 1): > 100 µM | EC50 (Human betaherpesvirus 5): 41.1 µM

N#C[Se]CCCOC(=O)CCCC[C@@H]1SC[C@@H]2NC(=O)N[C@@H]21
IC50 [1]: 22.3 µM | IC50 (ES-2): 91.6 µM | IC50 (HEK-293T): > 100 µM | IC50 (OVCAR-3): > 100 µM | IC50 [2]: > 100 µM

Cc1ccccc1[Se]C(Cn1ccnc1)c1ccc(Cl)cc1 (stereo not given)
MIC (Candida tropicalis): 0.03 µg/mL (≈ 0.0798 µM) | MIC (Candida parapsilosis): 0.5 µg/mL (≈ 1.33 µM) | MIC (Cryptococcus neoformans): 0.5 µg/mL (≈ 1.33 µM) | half-life [13]: > 6 h | MIC (Pichia kudriavzevii): 0.13 µg/mL (≈ 0.346 µM) | MIC (Nakaseomyces glabratus): 0.5 µg/mL (≈ 1.33 µM) | MIC (Aspergillus fumigatus): 4 µg/mL (≈ 10.6 µM) | MIC (Candida albicans [7]): 0.06 µg/mL (≈ 0.16 µM) | MIC (Candida albicans [10]): 0.03 µg/mL (≈ 0.0798 µM)

COc1cc2c(c(OC)c1OC)-c1ccc(OC)c(=O)cc1[C@@H](NC(C)=O)CC2 [COLCHICINE]
IC50 at 96 h [14]: 0.045 µg/mL (≈ 0.113 µM)

Cc1cc(=O)[nH]c(=S)[nH]1 [METHYLTHIOURACIL]
IC50 [12]: 66.7 µM

c1ccc(-c2nn[se]c2-n2cncn2)cc1
IC50 at 96 h [15]: 20.5 µg/mL (≈ 74.3 µM) | MIC (Candida albicans [5]): 32 µg/mL (≈ 116 µM) | MIC (Candida albicans [6]): 32 µg/mL (≈ 116 µM) | IC50 at 96 h [16]: 80.7 µg/mL (≈ 292 µM) | MIC (Candida albicans [8]): 16 µg/mL (≈ 57.9 µM) | IC50 at 96 h [14]: 30.8 µg/mL (≈ 111 µM) | MIC (Candida albicans [9]): 32 µg/mL (≈ 116 µM) | MIC (Candida albicans [11]): 2 µg/mL (≈ 7.24 µM)

CC[Se]C(=O)CCCC[C@@H]1SC[C@@H]2NC(=O)N[C@@H]21
IC50 [1]: 12.8 µM | IC50 (ES-2): 14.5 µM | IC50 (HEK-293T): 38.8 µM | IC50 (OVCAR-3): 34.2 µM | IC50 [2]: 40.4 µM

Clc1ccc(-c2nn[se]c2-n2cncn2)c(Cl)c1
IC50 at 96 h [15]: 16.9 µg/mL (≈ 49.1 µM) | MIC (Candida albicans [5]): 16 µg/mL (≈ 46.4 µM) | MIC (Candida albicans [6]): 8 µg/mL (≈ 23.2 µM) | IC50 at 96 h [16]: 23.5 µg/mL (≈ 68.1 µM) | MIC (Candida albicans [8]): 4 µg/mL (≈ 11.6 µM) | IC50 at 96 h [14]: 19.5 µg/mL (≈ 56.5 µM) | MIC (Candida albicans [9]): 32 µg/mL (≈ 92.7 µM) | MIC (Candida albicans [11]): 4 µg/mL (≈ 11.6 µM)

Cn1cc[nH]c1=[Se]
Activity [3]: 66% | IC50 [12]: 49.1 µM

Clc1ccc(-c2nn[se]c2-n2ccnc2)c(Cl)c1
IC50 at 96 h [15]: 16.2 µg/mL (≈ 47 µM) | MIC (Candida albicans [5]): 16 µg/mL (≈ 46.5 µM) | MIC (Candida albicans [6]): 32 µg/mL (≈ 93 µM) | IC50 at 96 h [16]: 14.7 µg/mL (≈ 42.7 µM) | MIC (Candida albicans [8]): 16 µg/mL (≈ 46.5 µM) | IC50 at 96 h [14]: 14.6 µg/mL (≈ 42.5 µM) | MIC (Candida albicans [9]): 16 µg/mL (≈ 46.5 µM) | MIC (Candida albicans [11]): 1 µg/mL (≈ 2.91 µM)

CC[C@@]1(OC(=O)OCc2ccc(O/C=C/[Se]c3ccccc3)cc2)C(=O)OCc2c1cc1n(c2=O)Cc2cc3ccccc3nc2-1
IC50 (A549): 0.102 µM | IC50 (HeLa): 0.308 µM | IC50 at 72 h [17]: 10.2 µM | IC50 at 72 h [18]: 1.18 µM | IC50 (HCT-116): 0.043 µM
